The values that follow come from ChEMBL document CHEMBL1133876, “alpha-Ketocarboxylic acid-based inhibitors of protein tyrosine phosphatases” (Bioorg Med Chem Lett, 2001).

For assay [1], the target named is Tyrosine-protein phosphatase YopH (Yersinia enterocolitica) (UniProt P15273). In words: Inhibitory activity against Yersinia Protein-tyrosine phosphatase YopH.
For assay [2] the target is unchanged. Described as above. The source holds these as a separate data set.

Chain of Tyrosine-protein phosphatase YopH (Yersinia enterocolitica) (P15273 whole entry, looked up): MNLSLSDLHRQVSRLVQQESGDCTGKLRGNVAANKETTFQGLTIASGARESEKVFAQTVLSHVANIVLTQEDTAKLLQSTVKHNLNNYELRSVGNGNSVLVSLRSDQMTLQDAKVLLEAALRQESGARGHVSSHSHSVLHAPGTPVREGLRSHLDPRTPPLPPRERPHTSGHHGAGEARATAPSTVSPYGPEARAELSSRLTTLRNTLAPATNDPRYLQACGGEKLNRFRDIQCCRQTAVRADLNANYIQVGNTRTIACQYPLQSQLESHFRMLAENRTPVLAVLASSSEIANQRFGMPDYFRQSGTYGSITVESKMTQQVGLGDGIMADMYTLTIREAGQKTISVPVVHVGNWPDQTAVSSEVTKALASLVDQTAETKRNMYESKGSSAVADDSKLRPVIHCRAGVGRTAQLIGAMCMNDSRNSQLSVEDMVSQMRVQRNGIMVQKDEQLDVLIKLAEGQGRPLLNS

As a reminder, the IC50 is the point on the concentration scale where inhibition reaches its midpoint. Low values mean greater potency in that assay, high ones weaker potency in that assay. Turning to `O=C(O)[C@H](O)c1ccccc1`, it took 5500 µM to reach half-maximal inhibition in assay [1] (IC50). `O=C(O)C(=O)c1cccs1`: in assay [1], the IC50 was found to be 950 µM.

The term Ki denotes the equilibrium dissociation constant of an inhibitor or competing ligand from its target. A high value points to a looser hold on the target. `O=C(O)C(=O)c1ccco1` came in with a Ki in assay [2] of 79 µM. As to `O=C(O)C(=O)c1ccccc1C(=O)O`, the half-inhibitory concentration (IC50) in assay [1] is 1500 µM. `COc1ccc(C(=O)C(=O)O)cc1OC`: 1700 µM corresponded to half-maximal inhibition in assay [1] (IC50). In assay [1], `O=C(O)C(O)c1ccc2ccccc2c1` (stereo not drawn) returned an IC50 of 3300 µM. Against the preceding compound, the IC50 is about 1.9-fold higher. In the case of `COc1ccc(C(=O)C(=O)O)cc1`, the midpoint of inhibition in assay [1], the IC50, lay at 150 µM. This IC50 is about 22-fold lower than that of the compound before. The compound `O=C(O)C(=O)c1c[nH]c2ccccc12` displayed an IC50 in assay [1] of 390 µM. Compound `O=C(O)C(O)c1ccco1` (stereo not drawn) displayed an IC50 in assay [1] of 27 µM. Compound `COc1ccc(C(O)C(=O)O)cc1` (stereo not drawn) displayed an IC50 in assay [1] of 5700 µM. Regarding `COC(=O)c1ccc(C(=O)C(=O)O)cc1`, the IC50 in assay [1] amounted to 2300 µM.

In turn, `O=C(O)[C@@H](O)c1ccccc1` showed an IC50 in assay [1] of 4900 µM.

`O=C(O)C(=O)c1c(F)c(F)c(F)c(F)c1F` returned an IC50 in assay [1] of 790 µM.

In the case of `O=P(O)(O)C(F)(F)c1ccc2ccccc2c1`, in assay [2], the Ki worked out at 179 µM.

Consider `O=C(O)C(=O)c1ccc([N+](=O)[O-])cc1`, for which it took 2700 µM to reach half-maximal inhibition in assay [1] (IC50). This counts as millimolar. For `O=C(O)C(=O)c1ccc2ccccc2c1`, the IC50 in assay [1] is 190 µM. For `O=C(O)Cc1ccc2ccccc2c1`, the IC50 in assay [1] turned out to be 3500 µM. Same read-out and setting: to `O=C(O)C(=O)c1ccccc1` [BENZOYL FORMIC ACID] belongs 2700 µM.
